The values below come from US20200315933A1, “USE OF CANNABIDIOL OR CANNABIS EXTRACT IN PREPARATION OF SKIN WHITENING PRODUCTS” (HANYI BIO-TECHNOLOGY COMPANY LTD., priority 2017, published 2020).

SMILES strings stand for the structures.

Format in all cases: cell-based
The test system of experiment [1] is human immortalized epidermal cells. Kind of experiment: Cytotoxicity test (MTT) of human immortalized epidermal cells. To be noted: samples containing cannabis seed oil. The procedure: Human immortalized epidermal cells at a logarithmic phase were collected, the concentration of the cell suspension was adjusted, the cell suspension was added to a 96-well plate at 100 μl per well, incubation was performed at 37° C. and with 5% CO2 to reach a cell density of 5000 cells/well. The solution was changed and the experimental samples at different concentration gradients were added (as the following Table 4), a culture solution containing no experiment sample was used as the control. Incubation was performed with 5% CO2 and at 37° C. for 24 hours, 20 μl of MTT solution (5 mg/ml, i.e. 0.5% MTT) was added into each well, the cultivation was continued for four hours. The drug reacted with MTT sufficiently, firstly centrifugation was performed, then the culture solution was abandoned, and rinsing was performed with PBS carefully for 2-3 times, then a culture solution containing MTT was added. The cultivation was terminated, the culture solution in the well were drawn off carefully. […] The absorbance values of each well were measured in an enzyme linked immunosorbent detector at OD value of 490 nm.
Cell survival rate=(determined well OD value−blank control OD value)/(OD value in the cell comparative group−OD value in the blank control)×100%.

A further experiment addresses T1, tyrosinase (Mus musculus, UniProt P11344).
T1 construct: endogenous in cells; host or cells: B16 cells
T1 sequence (P11344 19-533): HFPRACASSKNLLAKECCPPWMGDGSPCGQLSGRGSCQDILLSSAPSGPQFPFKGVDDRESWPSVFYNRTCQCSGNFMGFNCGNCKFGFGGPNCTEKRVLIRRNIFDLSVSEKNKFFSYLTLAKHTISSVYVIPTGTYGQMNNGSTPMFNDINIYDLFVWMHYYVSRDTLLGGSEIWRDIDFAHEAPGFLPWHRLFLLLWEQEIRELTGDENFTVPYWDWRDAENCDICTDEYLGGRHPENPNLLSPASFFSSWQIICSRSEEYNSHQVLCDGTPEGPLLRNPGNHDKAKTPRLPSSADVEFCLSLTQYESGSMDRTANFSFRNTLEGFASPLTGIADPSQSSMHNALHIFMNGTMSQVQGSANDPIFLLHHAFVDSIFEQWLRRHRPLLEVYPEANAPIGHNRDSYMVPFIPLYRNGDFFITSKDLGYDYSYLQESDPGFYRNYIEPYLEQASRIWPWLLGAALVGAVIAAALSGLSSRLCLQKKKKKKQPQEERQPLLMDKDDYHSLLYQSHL
Briefly: Determination of tyrosinase inhibition rate in B16 cells. To be noted: action of 72 hours, inhibition rate increased with amount. The procedure: B16 cells at a logarithmic phase were collected, trypsin was adopted for digestion, the digestion was terminated with a complete medium (DMEM high sugar medium+10% fetal calf serum), counting was performed; the cell suspension was adjusted to 10×10^4 cells/mL, and inoculated into a 96-well culture plate, each well was added with 100 μl of cell suspension, the marginal wells were filled with sterile PBS, and cultivated in an incubator at 37° C. and with 5% CO2 overnight, the medium (DMEM high sugar medium+10% fetal calf serum) was drawn out, 100 μl of the experiment sample was added into each well, and a control group (namely, the well without the sample but with only medium) was set. After action of 72 hours, 50 μl of 1% TritionX-100 solution was added for cell lysis, quickly put into an ultra-low temperature freezer at −80° C. and cryopreserved for one hour, subsequently the cryopreserved solution was thawed at room temperature, such that tyrosinase within the cells were released outside the cells, pre-warming was performed to 37° C., then 50 μl of 1% levodopa solution was added to produce a mixture, the mixture was reacted at 37° C. for 2 hours, the absorbance value in each well was determined at the wavelength of 490 nm, for every sample concentration, more than 3 subwells were set, and averaged. […]

A further experiment concerns B16 cells. Kind of experiment: Determination of melanin content in B16 cells. To be noted: positive control 33 mM. The procedure:
B16 cells in good state at a logarithmic phase were collected, trypsin was adopted for digestion, the digestion was terminated with a complete medium, and counting was performed; the prepared cell suspension was adjusted to 5×10^4 cells/ml and added into a 6-well culture plate, 2 ml of cell suspension was added into each well, cultivation was performed in an incubator at 37° C. and with 5% CO2 overnight; the medium was drawn out, 2 ml of cannabis extracts with different concentrations were added into each well, after action of 48 hours, the medium was drawn out and abandoned, trypsin was adopted for digestion, and the product was collected into a centrifugal tube, centrifugation was performed to obtain a cell precipitate, the cell precipitate was washed with PBS for one time, a 1M NaOH (containing 10% DMSO) solution was added for cell lysis, and the lysed cells were put in a 80° C. water bath kettle for water bath for 30 minutes; uniform shaking and mixing were performed, and the processed cells were drawn into to a 96-well plate; and the absorbance value was determined at the wavelength of 245 nm.
Relative melanin content=(mean absorbance value in each well under every concentration−mean absorbance value in the control group)[…].

Consider `C=C(C)[C@@H]1CCC(C)=C[C@H]1c1c(O)cc(CCCCC)cc1O` [CBD, Cannabidiol], for which, in experiment [1], the “cell proliferation (eliminating the influence of the cannabis seed oil)” value is recorded as “promote cell proliferation to a certain extent”. In addition, the “inhibitory effect against tyrosinase (inhibition rate)” value on tyrosinase is “effective inhibitory effect against tyrosinase”.
In the case of `OC[C@H]1O[C@@H](Oc2ccc(O)cc2)[C@H](O)[C@@H](O)[C@@H]1O` [arbutin, Arbutin], in the experiment with B16 cells, the “melanin content within the B16 cells” value was 79.24%.
